# Experiment: Phase I study: plasma pharmacokinetics of ASP9853 and docetaxel
# Type: in vivo, human
# Settings: compared with reported docetaxel alone [29]
smiles,measurement,value
"CC(=O)O[C@@]12CO[C@@H]1C[C@H](O)[C@@]1(C)C(=O)[C@H](O)C3=C(C)[C@@H](OC(=O)[C@H](O)[C@@H](NC(=O)OC(C)(C)C)c4ccccc4)C[C@@](O)([C@@H](OC(=O)c4ccccc4)[C@H]21)C3(C)C [docetaxel, reference compound]",Docetaxel PK in combination with ASP9853,appeared similar to that reported for docetaxel alone

# Source: publication PMC4767605 (Cancer chemotherapy and pharmacology, 2016)
